# Measurements published in patent US12714686B2, “N-propargylglycine: a unique inhibitor of proline dehydrogenase with brain-enhancing mitohormesis properties capable of mitigating the pathogenesis of neurodegenerative disorders” (Buck Institute for Research on Aging, priority 2020, dated 2026).
# “Also recorded” adds a separate entry of the source.
# What was measured:
# [1] = molecular target: T1, proline dehydrogenase (PRODH) (Homo sapiens, UniProt O43272); experiment: PRODH enzyme inhibition; format: biochemical
# T1 sequence (O43272 1-600): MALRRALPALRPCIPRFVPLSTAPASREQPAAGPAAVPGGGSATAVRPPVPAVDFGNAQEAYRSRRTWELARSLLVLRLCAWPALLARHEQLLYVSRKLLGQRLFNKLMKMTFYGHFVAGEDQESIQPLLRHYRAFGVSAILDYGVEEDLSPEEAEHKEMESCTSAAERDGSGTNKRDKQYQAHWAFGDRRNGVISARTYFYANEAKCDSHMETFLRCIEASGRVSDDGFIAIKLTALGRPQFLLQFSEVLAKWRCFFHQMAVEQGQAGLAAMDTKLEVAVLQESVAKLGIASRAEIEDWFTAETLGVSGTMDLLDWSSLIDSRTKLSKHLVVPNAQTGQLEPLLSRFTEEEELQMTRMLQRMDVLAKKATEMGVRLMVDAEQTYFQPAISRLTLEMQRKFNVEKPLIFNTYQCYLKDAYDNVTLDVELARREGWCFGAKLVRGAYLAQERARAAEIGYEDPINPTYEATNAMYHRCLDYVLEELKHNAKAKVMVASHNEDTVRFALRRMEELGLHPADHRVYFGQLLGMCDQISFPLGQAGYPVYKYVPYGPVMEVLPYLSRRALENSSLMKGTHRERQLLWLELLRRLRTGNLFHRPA
# [2] = test system: PRODH expressing mammalian cell systems; experiment: UPRmt activation and mitohormesis induction in PRODH expressing mammalian cell systems; format: cell-based; conditions: all PRODH expressing mammalian cell systems studied to date
# [3] = test system: mouse brain transcriptome; experiment: Study A: whole brain transcriptome (RNAseq) and pathway analysis; format: in vivo
# Description: (§1) For Study A, beginning at 5 weeks of age, seven male and female mice (WT) were daily administered oral N-PPG over a graduated dose range of 50 mg/kg to 200 mg/kg for 9 days, while 4 other age- and sex-matched control mice (W) were given only daily saline.
# (§2) For Study B, beginning at 5-weeks of age, four male and female Htt-mut mice (HT) were administered oral N-PPG at 50 mg/kg daily for 9 days, while four other age- and sex-matched Htt-mut mice (H) were given only daily saline. All Study A and B mice were sacrificed within 4 h of receiving their last treatment (week 7). […] Excised brains were snap frozen in liquid nitrogen for latter cryopulverization, extraction and analysis of total brain RNA and protein.
# [4] = test system: Htt-mut mouse brain transcriptome; experiment: Study B: whole brain RNA transcriptome (RNAseq) of Htt-mut mice; format: in vivo
# Description: as §2
# HSP-60 = experiment: Study A: brain chaperone HSP-60 transcripts by RT-PCR; format: in vivo; conditions: single mouse brain, 200 mg/kg oral N-PPG, 9 days
# Description: as §1, §2
# PRODH [5] = molecular target: T2, PRODH (Mus musculus, UniProt Q9WU79); experiment: Study B: oral N-PPG in Htt-mut (R6/2) mice, whole brain PRODH protein; format: in vivo; conditions: HT mice, 50 mg/kg/day orally x 9 days vs saline, compared with wildtype
# T2 construct: Western blots of whole brain lysates from wildtype B6/CBA mice; from tissue; R6/2 Htt-mut in B6/CBA background
# T2 sequence (Q9WU79 1-599): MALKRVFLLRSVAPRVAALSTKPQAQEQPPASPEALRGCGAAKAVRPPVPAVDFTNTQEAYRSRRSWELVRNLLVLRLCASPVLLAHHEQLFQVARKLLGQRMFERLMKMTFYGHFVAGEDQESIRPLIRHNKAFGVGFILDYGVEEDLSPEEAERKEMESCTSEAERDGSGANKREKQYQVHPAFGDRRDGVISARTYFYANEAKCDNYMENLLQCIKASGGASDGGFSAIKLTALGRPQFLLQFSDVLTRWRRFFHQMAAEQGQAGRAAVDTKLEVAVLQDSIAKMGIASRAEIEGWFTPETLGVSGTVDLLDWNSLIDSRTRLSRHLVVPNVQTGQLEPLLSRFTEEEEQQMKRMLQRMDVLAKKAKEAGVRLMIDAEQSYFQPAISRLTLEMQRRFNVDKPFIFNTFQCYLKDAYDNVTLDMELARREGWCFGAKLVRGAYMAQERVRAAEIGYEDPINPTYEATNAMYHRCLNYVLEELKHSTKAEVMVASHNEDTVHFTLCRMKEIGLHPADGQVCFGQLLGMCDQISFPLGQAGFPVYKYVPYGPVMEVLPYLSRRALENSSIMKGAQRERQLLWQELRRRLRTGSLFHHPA
# Description: as §2
# [6] = Brain penetration of orally administered N-PPG; format: in vivo; conditions: oral, repeated administration; inferred from brain UPRmt induction
# YME1L1 [7] = experiment: Study B: brain YME1L1 in Htt-mut and wildtype mice; format: in vivo, mouse; conditions: 50 mg/kg/day oral N-PPG, 9 days
# Description: as §2
# YME1L1 [8] = experiment: Study A: brain UPRmt protease YME1L1 mRNA and protein expression; format: in vivo, mouse
# Description: as §1, §2
# [9] = Tolerability of oral N-PPG in Study A and B mice (body weight, vitality, side effects); format: in vivo, mouse
# Description: as §1, §2
# PRODH [10] = molecular target: T2, PRODH; experiment: Study A: oral N-PPG in wildtype mice, whole brain PRODH protein (western blot) and mRNA; format: in vivo; conditions: whole brain lysates
# Description: as §1, §2
# [11] = over-representation analysis, FDR p<0.05
smiles,measurement,setting,value
O=C(O)C1CCCO1 (centres unmarked) [THFA],PRODH enzyme inhibiting potency relative to N-PPG,[1],comparable
same,activation of UPRmt and induction of mitohormesis,[2],do not activate the UPRmt or induce mitohormesis
O=C(O)C1NCCS1 (centres unmarked) [T2C],PRODH enzyme inhibiting potency relative to N-PPG,[1],comparable
same,activation of UPRmt and induction of mitohormesis,[2],do not activate the UPRmt or induce mitohormesis
"C#CCNCC(=O)O [N-PPG, N-propargylglycine]",whole brain transcriptome pathway analysis,"[3]; WT vs W mice, RNAseq, FDR p<0.05","upregulation of pathways (GO, Reactome) specifically regulating neuronal cell functions"
same,genes differentially expressed (p<0.05) between N-PPG treated and saline treated brains,"[3]; five WT (50 mg/kg, one 100 mg/kg, oral 9 days) vs four W brains, RNAseq",1324 genes
same,upregulated genes among the differentially expressed genes,"[3]; five WT vs four W brains, RNAseq",841 genes
same,Reactome neural pathways encoded by upregulated genes,[3]; [11],7
same,enriched Gene Ontology (GO) pathways encoded by upregulated genes,[3]; [11],77
same,normalization of deranged whole brain transcriptome of Htt-mut mice,"[4]; HT mice, 50 mg/kg/day orally x 9 days vs untreated H, includes TH, DRD1, ADORA2A, 50 mg/kg/day",partial-to complete normalization; also recorded: normalizes HT transcriptomes away from Htt-mut (H) and more toward wildtype (W)
same,"differentially expressed genes between WT, HT, W and H brains","[4]; Study B, RNAseq, FDR p<0.05",622 genes
same,Htt-mut treated mice with full transcriptome normalization,"[4]; four HT mice, 50 mg/kg/day orally x 9 days",one of the four
same,induction of chaperone HSP-60 transcripts relative to housekeeping transcripts,HSP-60,1.7 fold
same,brain PRODH protein decay in Htt-mut mice,PRODH [5],partial mitochondrial PRODH protein degradation
same,crossing of the blood-brain-barrier,[6],capable of crossing the mammalian blood-brain-barrier
same,brain YME1L1 in Htt-mut and wildtype mice,YME1L1 [7],YME1L1 upregulation
same,mitochondrial YME1L1 mRNA and protein expression,"YME1L1 [8]; WT mice, 50 mg/kg dose, brain",increased
same,induction of mitochondrial protease YME1L1 transcripts relative to housekeeping transcripts,"YME1L1 [8]; single mouse brain, 200 mg/kg oral N-PPG, 9 days, RT-PCR",1.4 fold
same,increase in mean YME1L1 expression (signals normalized to β-actin or Rieske),"YME1L1 [8]; wildtype mice, 50 mg/kg oral N-PPG vs saline, whole brain lysates, western blot",~ 40%
same,health of mice at sacrifice (repeated body weight and vitality measurements),"[9]; all Study A and B mice, week 7",healthy and asymptomatic
same,systemic or neurologic side effects,"[9]; mice, daily oral 50 to 200 mg/kg N-PPG, 9 days",without any systemic or neurologic side effects; also recorded: without causing any adverse systemic or neurologic consequences
same,reduction in mean PRODH expression (PRODH signals normalized to β-actin or Rieske),"PRODH [10]; wildtype B6/CBA mice, oral 50 mg/kg N-PPG for nine days vs saline",at least 30%
same,normalized mean PRODH expression levels,"PRODH [10]; wildtype mice, oral saline, 50, 100, 150 or 200 mg/kg N-PPG",dose-dependent decline
same,activation of UPRmt and induction of mitohormesis,[2],activate the mitochondrial unfolded protein response (UPRmt) and induce mitohormesis
O=C1CCC(C(=O)O)O1 (centres unmarked) [5-oxo],PRODH enzyme inhibiting potency relative to N-PPG,[1],comparable
same,activation of UPRmt and induction of mitohormesis,[2],do not activate the UPRmt or induce mitohormesis
